pEC50: −log10 of the molar value. Where two headings read alike, the source gives them in different places.
Tests used:
[1] = test system: Human Rhinovirus 14 (HRV14); assay: H1-HeLa HRV-CTG 384-well assay, HRV14, Example X; assay type: cell-based; details: Rhinovirus B, 96 h, read-out: EC50 H1-HeLa_HRV 14_HRV-CTG 384-well Assay (per Ex. X)
Source text: (§1) Example X: H1-HeLa HRV-CTG 384-Well Assay
(§2) H1-Hela cell line (ATCC, Manassas, VA, Cat #CRL-1958) was maintained in Dulbecco's […] (DMEM) (Corning, New York, NY, Cat #15-018CM) supplemented with 10% fetal bovine serum (FBS) (Hyclone, Logan, UT, Cat #SH30071-03), and 1× Penicillin-Streptomycin-L-Glutamine (Corning, New York, NY, Cat #30-009-CI). Cells were passaged 2 times per week to maintain sub-confluent densities and were used for experiments at passage 5-30. The Human Rhinovirus 1B (HRV1B) (ATCC, Manassas, VA, Cat #VR-1645), Human Rhinovirus 14 (HRV14) (ATCC, Manassas, VA, Cat #VR-284), and Human Rhinovirus 16 (HRV16) (ATCC, Manassas, VA, Cat #BR-283) was obtained through ATCC. Viral infection was monitored by determining viability of H1-HeLa cells as described below.
(§3) Test molecules are prepared in 100% DMSO in 384-well polypropylene plates (Greiner, Monroe, NC, Cat #784201) with 8 compounds per plate in grouped replicates of 4 at 10 serially diluted concentrations (1:3). The serially diluted compounds were transferred to low dead volume Echo plates (Labcyte, Sunnyvale, CA, Cat #LP-0200).
(§4) The test compounds were spotted to 384-well assay plates (Greiner, Monroe, NC, Cat #781091) at 200 nL per well using an Echo acoustic dispenser (Labcyte, Sunnyvale, CA). H1-HeLa cells were harvested and suspended in DMEM (supplemented with 2% FBS and 1× Penicillin-Streptomycin-L-Glutamine) and seeded to the pre-spotted assay plates at 5,000 cells per well in 30 μL. HRV1B, HRV14, and HRV16 was diluted in DMEM (supplemented with 2% FBS and 1× Penicillin-Streptomycin-L-Glutamine) at 97.1 million Infectious Units (IU) per mL, 151 million IU per mL and 221 million IU per mL respectively. 10 μL of virus per well was added to the assay plates containing cells and compounds, for an MOI of 0.5, 1.0, and 0.25 respectively. The assay plates were incubated for 4 days at 37° C. and 5% CO2. At the end of incubation, Celltiter-Glo (Promega, Madison, WI, Cat #G7573) was prepared. The assay plates and Celltiter-Glo reagent were equilibrated to room temperature for at least 15 minutes. 40 μL per well of Celltiter-Glo reagent was added and the plates were incubated at room temperature for 15 minutes before reading the luminescence signal on an EnVision multimode plate reader (Perkin Elmer, Waltham, MA). Rupintrivir was used as positive control and DMSO was used as negative control. Values were normalized to the positive and negative controls (as 0% and 100% replication, respectively) and data was fitted using non-linear regression analysis by Gilead's dose response tool. The EC50 value for each compound was defined as the concentration reducing viral replication by 50%.

[2] = test system: Human Rhinovirus 1B (HRV1B); assay: H1-HeLa HRV-CTG 384-well assay, HRV1B, Example X; assay type: cell-based; details: Rhinovirus A, 96 h, read-out: EC50 H1-HeLa_HRV 1B_HRV-CTG 384-well Assay (per Ex. X)
Source text: as §1, §2, §3, §4

[3] = GI S9 stability, rat, Example Y; assay type: in vitro ADME; details: pooled intestinal S9 fractions; rat intestinal S9, 1.0 mg/mL protein, 2 μM compound, pH 7.4; read-out: GIS9 Rat T½ (per Ex. Y)
Experimental: (§5) Example Y: GI S9 Stability Data
(§6) Stock solutions of test compounds in dimethyl sulfoxide (DMSO) having a final concentration of 10 mM were prepared and used in all experiments. Sekisui XenoTech (Kansas City, KS) provided pooled intestinal S9 fractions. All other chemicals were purchased from Sigma-Aldrich (St. Louis, MO) or VWR (West Chester, PA). Internal Standard/Quench (IS/Q) used to stop reactions was 100 nM labetalol in (by volume) methanol (10%) and acetonitrile (90%).
(§7) Stability in Intestinal S9 Fractions: Duplicate aliquots of test compound or positive control substrate were added to S9 stock diluted with phosphate buffered saline (137 mM NaCl, 2.7 mM KCl, 10 mM phosphate buffer), pH 7.4, to obtain a protein concentration of 1.0 mg/mL. The metabolic reactions were initiated by the addition of the substrates to the S9 reaction mixture to a final concentration of 2 μM. At 0, 10, 20, 30, 60 and 120 min, 25 μL aliquots of the reaction mixture were transferred to plates containing 225 μl of IS/Q solution. After quenching, the plates were centrifuged at 3000×g for 30 minutes. 150 μL aliquots of each supernatant were dried down then reconstituted with 300 μL water. Aliquots (10 μL) of the prepared samples were analyzed on a Thermo Q-Exactive mass spectrometer as described below.
(§8) Liquid Chromatography—Mass Spectrometry: Quantification of test compounds and control substrate was performed by analyte/internal standard peak area ratio (PAR) values measured on a Thermo Q-Exactive mass spectrometer coupled to a Dionex UltiMate 3000 HPLC with a Leap Technologies HTC PAL autosampler. The column used for analysis was a Waters Acquity BEH C18 (1.7 μm particle size, 2.1×50 mm). Mobile phase A consisted of 0.1% (v/v) formic acid in water. Mobile phase B consisted of 0.1% (v/v) formic acid in acetonitrile. Elution of analytes was achieved by a series of linear gradients varying the proportions of A and B. The mass spectrometer was calibrated on a weekly basis and mass tolerance of 5 ppm was used.
(§9) Metabolic stabilities in S9 fractions were determined by measuring the rates of disappearance of test compound and positive control substrate.
(§10) Data (% of substrate remaining) were plotted on a semi-log scale and fitted using an exponential decline model:
(§11) Ct=C0×e^−ln2/T1/2×t • Where Ct—% of substrate remaining at time=t; C0—% of substrate remaining at time=0; t—time; T1/2—half-life. • The Half-life (T1/2) is determined by the following equation: […]
(§12) Assuming a first-order reaction, the slope (k) is extrapolated from the aforementioned plotted data.

[4] = GI S9 stability, human, Example Y; assay type: in vitro ADME; details: pooled intestinal S9 fractions; human intestinal S9, 1.0 mg/mL protein, 2 μM compound, pH 7.4; read-out: GIS9 Human T½ (per Ex. Y)
Experimental: as §5, §6, §7, §8, §9, §10, §11, §12

[5] = H1-HeLa cells, HRV14 MOI 1.0, 4 days, Celltiter-Glo
[6] = H1-HeLa cells, HRV1B MOI 0.5, 4 days, Celltiter-Glo

Row | SMILES | pEC50 [1, 5] | pEC50 [2, 6] | half-life at 2 μM [3] | half-life at 2 μM [4] | pEC50 ([1]; HRV14, H1-HeLa) | pEC50 ([2]; HRV1B, H1-HeLa)
1 | CCC(CC)COC(=O)OC[C@@]1(C#N)O[C@@H](c2ccc3c(N)ncnn23)[C@H](O)[C@@H]1O [Compound 31, ((2R,3S,4R,5S)-5-(4-aminopyrrolo[2,1-f][1,2,4]triazin-7-yl)-2-cyano-3,4-dihydroxytetrahydrofuran-2-yl)methyl (2-ethylbutyl) carbonate] | 5.12 | 5.50 | 3 min | 18 min | – | –
2 | CC1(C)CC(OC(=O)OC[C@@]2(C#N)O[C@@H](c3ccc4c(N)ncnn34)[C@H](O)[C@@H]2O)C1 [Compound 37, ((2R,3S,4R,5S)-5-(4-aminopyrrolo[2,1-f][1,2,4]triazin-7-yl)-2-cyano-3,4-dihydroxytetrahydrofuran-2-yl)methyl (3,3-dimethylcyclobutyl) carbonate] | 4.69 | 5.17 | 4 min | 29 min | – | –
3 | COC[C@@H](C)OC(=O)OC[C@@]1(C#N)O[C@@H](c2ccc3c(N)ncnn23)[C@H](O)[C@@H]1O [Compound 38, ((2R,3S,4R,5S)-5-(4-aminopyrrolo[2,1-f][1,2,4]triazin-7-yl)-2-cyano-3,4-dihydroxytetrahydrofuran-2-yl)methyl ((R)-1-methoxypropan-2-yl) carbonate] | 4.61 | 4.62 | 38 min | 292 min | – | –
4 | N#C[C@]1(COC(=O)OC2CCCCC2)O[C@@H](c2ccc3c(N)ncnn23)[C@H](O)[C@@H]1O [Compound 21, ((2R,3S,4R,5S)-5-(4-aminopyrrolo[2,1-f][1,2,4]triazin-7-yl)-2-cyano-3,4-dihydroxytetrahydrofuran-2-yl)methyl cyclohexyl carbonate] | 4.63 | 5.10 | 8 min | 44 min | – | –
5 | CC(C)OC(=O)OC[C@@]1(C#N)O[C@@H](c2ccc3c(N)ncnn23)[C@H](O)[C@@H]1O [Compound 11, ((2R,3S,4R,5S)-5-(4-aminopyrrolo[2,1-f][1,2,4]triazin-7-yl)-2-cyano-3,4-dihydroxytetrahydrofuran-2-yl)methyl isopropyl carbonate] | 4.51 | 4.91 | 14 min | 104 min | – | –
6 | CC(C)COC(=O)Nc1ncnn2c([C@@H]3O[C@](C#N)(CO)[C@@H](O)[C@H]3O)ccc12 [Compound 16, Isobutyl (7-((2S,3R,4S,5R)-5-cyano-3,4-dihydroxy-5-(hydroxymethyl)tetrahydrofuran-2-yl)pyrrolo[2,1-f][1,2,4]triazin-4-yl)carbamate] | 4.30 | 4.30 | 789 min | 789 min | – | –
7 | N#C[C@]1(COC(=O)OC2CCC2)O[C@@H](c2ccc3c(N)ncnn23)[C@H](O)[C@@H]1O [Compound 17, ((2R,3S,4R,5S)-5-(4-aminopyrrolo[2,1-f][1,2,4]triazin-7-yl)-2-cyano-3,4-dihydroxytetrahydrofuran-2-yl)methyl cyclobutyl carbonate] | 4.73 | 5.22 | 7 min | 29 min | – | –
8 | N#C[C@]1(COC(=O)O[C@H]2CCOC2)O[C@@H](c2ccc3c(N)ncnn23)[C@H](O)[C@@H]1O [Compound 33, ((2R,3S,4R,5S)-5-(4-aminopyrrolo[2,1-f][1,2,4]triazin-7-yl)-2-cyano-3,4-dihydroxytetrahydrofuran-2-yl)methyl ((S)-tetrahydrofuran-3-yl) carbonate] | 4.81 | 5.06 | 58 min | 250 min | – | –
9 | CC(C)(C)OC(=O)OC[C@@]1(C#N)O[C@@H](c2ccc3c(N)ncnn23)[C@H](O)[C@@H]1O [Compound 13, ((2R,3S,4R,5S)-5-(4-aminopyrrolo[2,1-f][1,2,4]triazin-7-yl)-2-cyano-3,4-dihydroxytetrahydrofuran-2-yl)methyl tert-butyl carbonate] | – | – | 74 min | 97 min | 5.33 | 5.50
10 | CC(C)CCOC(=O)OC[C@@]1(C#N)O[C@@H](c2ccc3c(N)ncnn23)[C@H](O)[C@@H]1O [Compound 7, ((2R,3S,4R,5S)-5-(4-aminopyrrolo[2,1-f][1,2,4]triazin-7-yl)-2-cyano-3,4-dihydroxytetrahydrofuran-2-yl)methyl isopentyl carbonate] | 5.14 | 5.55 | 3 min | 20 min | – | –
11 | CCC(CC)OC(=O)OC[C@@]1(C#N)O[C@@H](c2ccc3c(N)ncnn23)[C@H](O)[C@@H]1O [Compound 14, ((2R,3S,4R,5S)-5-(4-aminopyrrolo[2,1-f][1,2,4]triazin-7-yl)-2-cyano-3,4-dihydroxytetrahydrofuran-2-yl)methyl pentan-3-yl carbonate] | 4.35 | 4.64 | 16 min | 104 min | – | –
12 | N#C[C@]1(COC(=O)OCC2CCCC2)O[C@@H](c2ccc3c(N)ncnn23)[C@H](O)[C@@H]1O [Compound 30, ((2R,3S,4R,5S)-5-(4-aminopyrrolo[2,1-f][1,2,4]triazin-7-yl)-2-cyano-3,4-dihydroxytetrahydrofuran-2-yl)methyl (cyclopentylmethyl) carbonate] | 5.25 | 5.51 | 3 min | 15 min | – | –
13 | COC(=O)OC[C@@]1(C#N)O[C@@H](c2ccc3c(N)ncnn23)[C@H](O)[C@@H]1O [Compound 6, ((2R,3S,4R,5S)-5-(4-aminopyrrolo[2,1-f][1,2,4]triazin-7-yl)-2-cyano-3,4-dihydroxytetrahydrofuran-2-yl)methyl methyl carbonate] | 4.82 | 5.05 | 37 min | 201 min | – | –

— patent publication US20230382940A1, “ANTIVIRAL COMPOUNDS AND METHODS OF MAKING AND USING THE SAME” (Gilead Sciences, Inc., priority 2022, published 2023)
